Source: US20080160509A1, “ASSAYS FOR PREDICTING AND ASSESSING PREDISPOSITION TO MALE PATTERN BALDNESS” (priority 2006, published 2008)

How the values were obtained:
[1] = biological target: sex hormone binding globulin (SHBG) (Homo sapiens, UniProt P04278); conditions: ratio versus testosterone; cited from earlier work
[2] = system: bald subject (Norwood Level VII); experiment: Antiviral agent and hair growth study in a bald subject; assay type: in vivo, human
From the text: A bald subject (Norwood Level VII) who routinely gets fever blisters volunteered to take place in a study to see if the topical application and oral consumption of antiviral drugs would result in hair growth. The individual lacks any hairs on the top of their head. The participant was instructed to cleanse their scalp twice daily with a liquid cleanser using a sonic skincare brush (Clarisonic®). After cleansing topical acyclovir (5%) was applied. The subject is not a candidate for any of the FDA-approved hair loss medications because of a lack of vellus hairs.
After approximately four weeks of treatment, the participant was given valacyclovir (500 mg) instead of oral acyclovir because of potential acyclovir resistance. In addition, the concentration of topical acyclovir was increased to 10%.
The fact that vellus hair formation occurred and converted to pigmented hairs is highly unexpected in a participant with Norwood Level VII baldness.

sex hormone binding globulin (SHBG), sequence (P04278 30-402): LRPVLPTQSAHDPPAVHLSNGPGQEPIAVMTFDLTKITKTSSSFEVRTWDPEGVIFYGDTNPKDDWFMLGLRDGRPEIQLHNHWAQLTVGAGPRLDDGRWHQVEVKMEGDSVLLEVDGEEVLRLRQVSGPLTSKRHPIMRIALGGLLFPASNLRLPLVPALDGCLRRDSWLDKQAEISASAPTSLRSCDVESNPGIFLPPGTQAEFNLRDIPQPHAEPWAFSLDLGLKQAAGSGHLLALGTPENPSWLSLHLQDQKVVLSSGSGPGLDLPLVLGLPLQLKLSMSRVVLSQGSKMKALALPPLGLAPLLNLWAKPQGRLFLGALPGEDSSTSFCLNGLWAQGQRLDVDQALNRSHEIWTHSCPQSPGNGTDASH

C[C@]12CCC(=O)C[C@@H]1CC[C@@H]1[C@@H]2CC[C@]2(C)[C@@H](O)CC[C@@H]12 [DHT, 5α-dihydrotestosterone]
binding affinity for SHBG relative to testosterone [1]: at least three times

Nc1nc2c(ncn2COCCO)c(=O)[nH]1 [acyclovir]
conversion of vellus hairs to pigmented hairs ([2]; after 16 weeks of treatment, topical acyclovir 10% plus oral valacyclovir (500 mg)): some of the vellus hairs converted to pigmented hairs | hair lengthening ([2]; after 20 weeks, topical acyclovir 10% plus oral valacyclovir (500 mg)): pigmented and unpigmented vellus hairs continued to lengthen | hair growth on scalp ([2]; at 12 weeks, topical acyclovir increased to 10% plus oral valacyclovir (500 mg) from about week 4): long, unpigmented vellus hairs were visible on the scalp | oral lesions ([2]; human, in vivo): marked increase in oral lesions | hair growth on scalp noted by participant ([2]; topical acyclovir (5%) after twice daily scalp cleansing, after two weeks of treatment, one person, Norwood Level VII): small vellus hairs
